# Reference: patent US6376429B1, “Benzoylcyclohexanediones, process for their preparation and their use as herbicides and plant growth regulators” (Hoechst Schering AgrEvo GmbH, priority 1998, dated 2002)
# Test system: Sinapis arvensis
# Experiment: Weed action preemergence
# Format: in vivo
# Details: dose of 1 kg of active substance or less per hectare, visual assessment after 3 to 4 weeks vs untreated controls
# Source text: Seeds of mono- and dicotyledonous weed plants are put into sandy loam soil in cardboard pots and covered with soil. The compounds according to the invention in the form of wettable powders or emulsion concentrates are then applied to the surface of the covering soil as an aqueous suspension or emulsion with a water application rate of 600 to 800 l/ha after conversion in a dose of 1 kg of active substance or less per hectare after conversion. After the treatment, the pots are placed in a greenhouse and kept under good growth conditions for the weeds. The visual assessment of the plants or emergence damage is carried out after the emergence of the test plants after a test period of 3 to 4 weeks in comparison with untreated controls. In this case, for example, the compounds of Example Nos. 5, 33 and 19 show an at least 80% action against Stellaria media, Lolium multiflorum and Amaranthus retroflexus. The compounds of Example Nos. 2 and 8 show an at least 90% action against Amaranthus retroflexus, Stellaria media and Setaria viridis. The compounds of Example Nos. 2 and 18 show a 100% action against Amaranthus retroflexus and Sinapis arvensis.
compound,measurement,value
"CS(=O)(=O)c1ccc(C(=O)C2C(=O)CCCC2=O)c(Cl)c1COc1ccccc1 [Example 2, 2-(2-chloro-4-methylsulfonyl-3-phenoxymethylbenzoyl)cyclohexane-1,3-dione]",action against Sinapis arvensis,100%
